Key:
Settings in all cases: 72 h
BV-173 [1] = test system: BV-173
Summary of the method: (§1)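 Fifteen myeloid leukaemia cell lines were seeded in RPMI 1640 at densities titrated to the linear growth range and placed in 384-well plates with acoustically pre-printed compounds at five tenfold doses from 1 to 10,000 nM, in duplicate. After 72 h at 37 °C with 5% CO2, luminescent ATP viability was normalised to vehicle and to a positive control at 10 µM, and curves were fitted with a four-parameter log-logistic model. The IC50 was obtained from these fits.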

HEL [2] = test system: HEL
Summary of the method: as §1

HL-60 [3] = test system: HL-60
Summary of the method: as §1

K-562 [4] = test system: K-562
Summary of the method: as §1

KCL-22 [5] = test system: KCL-22
Summary of the method: as §1

KG-1 [6] = test system: KG-1
Summary of the method: as §1

KU-812 [7] = test system: KU-812
Summary of the method: as §1

LAMA-84 [8] = test system: LAMA-84
Summary of the method: as §1

ML-2 [9] = test system: ML-2
Summary of the method: as §1

MOLM-13 [10] = test system: MOLM-13
Summary of the method: as §1

MV4-11 [11] = test system: MV4-11
Summary of the method: as §1

Mono-Mac-6 [12] = test system: Mono-Mac-6
Summary of the method: as §1

NOMO-1 [13] = test system: NOMO-1
Summary of the method: as §1

SHI-1 [14] = test system: SHI-1
Summary of the method: as §1

THP-1 [15] = test system: THP-1
Summary of the method: as §1

BV-173 [16] = test: cell viability (% survival relative to DMSO control, bortezomib = 0%); higher = less cytotoxic
Summary of the method: (§2)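 Fifteen myeloid leukaemia cell lines (10 AML, 5 CML) were seeded at a density titrated to the linear growth range into 384-well plates pre-printed with compounds at 1, 10, 100, 1000 or 10000 nM in duplicate. Plates were incubated for 72 h at 37 °C with 5% CO2. Viability was then read by CellTiter-Glo luminescence. Each value is percent survival averaged over the duplicates, with vehicle set to 100% and a 10 µM positive control to 0%.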

HEL [17] = test: as above
Summary of the method: as §2

HL-60 [18] = test: as above
Summary of the method: as §2

K-562 [19] = test: as above
Summary of the method: as §2

KCL-22 [20] = test: as above
Summary of the method: as §2

KG-1 [21] = test: as above
Summary of the method: as §2

KU-812 [22] = test: as above
Summary of the method: as §2

LAMA-84 [23] = test: as above
Summary of the method: as §2

ML-2 [24] = test: as above
Summary of the method: as §2

MOLM-13 [25] = test: as above
Summary of the method: as §2

MV4-11 [26] = test: as above
Summary of the method: as §2

Mono-Mac-6 [27] = test: as above
Summary of the method: as §2

NOMO-1 [28] = test: as above
Summary of the method: as §2

SHI-1 [29] = test: as above
Summary of the method: as §2

THP-1 [30] = test: as above
Summary of the method: as §2

COc1cc(C2Oc3cc(C4Oc5cc(O)cc(O)c5C(=O)C4O)ccc3OC2CO)ccc1O (stereo not given) [Silibinin]
Settings	IC50 (cell viability) [µM]
BV-173 [1]	> 10
HEL [2]	> 10
HL-60 [3]	> 10
K-562 [4]	> 10
KCL-22 [5]	> 10
KG-1 [6]	> 10
KU-812 [7]	> 10
LAMA-84 [8]	> 10
ML-2 [9]	> 10
MOLM-13 [10]	> 10
MV4-11 [11]	> 10
Mono-Mac-6 [12]	> 10
NOMO-1 [13]	> 10
SHI-1 [14]	> 10
THP-1 [15]	> 10

cell viability [%]
Settings	1 nM	10 nM	100 nM	1000 nM	10000 nM
BV-173 [16]	90.9	93.5	110	95.2	87.2
HEL [17]	101	100	115	89.2	103
HL-60 [18]	91.9	92.9	96.9	105	104
K-562 [19]	95	97.7	102	94.5	76.4
KCL-22 [20]	99.3	95.3	84.2	102	95.1
KG-1 [21]	91.3	104	99.2	94.3	93.8
KU-812 [22]	96.5	93.1	108	94.1	90.7
LAMA-84 [23]	98.1	102	110	95.6	95
ML-2 [24]	93	99.2	87.2	95.8	91.1
MOLM-13 [25]	99.8	103	103	106	103
MV4-11 [26]	100	95.7	97.2	110	98.8
Mono-Mac-6 [27]	96.4	91.2	94.1	99	98.9
NOMO-1 [28]	95.3	96.4	99.8	101	99.7
SHI-1 [29]	102	107	89.3	98.6	105
THP-1 [30]	99.3	95.5	107	98.9	95.9

Fc1ccc(CNc2ncnc3ccc(F)cc23)cc1 [Spautin 1]
Settings	IC50 (cell viability) [µM]
BV-173 [1]	2.75
HEL [2]	9.11
HL-60 [3]	9.64
K-562 [4]	1.34
KCL-22 [5]	> 10
KG-1 [6]	1.57
KU-812 [7]	1.39
LAMA-84 [8]	1.49
ML-2 [9]	> 10
MOLM-13 [10]	> 10
MV4-11 [11]	1.52
Mono-Mac-6 [12]	> 10
NOMO-1 [13]	> 10
SHI-1 [14]	> 10
THP-1 [15]	> 10

cell viability [%]
Settings	1 nM	10 nM	100 nM	1000 nM	10000 nM
BV-173 [16]	98.3	96.8	110	79.7	35.1
HEL [17]	91.3	98.3	94.1	89.4	47.9
HL-60 [18]	105	102	110	117	47.4
K-562 [19]	103	97	100	69.8	16.9
KCL-22 [20]	112	113	108	88.6	61.9
KG-1 [21]	108	98.5	103	66.8	32.6
KU-812 [22]	96.8	96.3	94.5	62.3	12.6
LAMA-84 [23]	103	103	93.5	66.4	26.7
ML-2 [24]	108	84.7	97	87.9	63.2
MOLM-13 [25]	93.1	89.7	122	108	50.9
MV4-11 [26]	98.8	92.4	102	64.7	33
Mono-Mac-6 [27]	109	96.1	119	106	59
NOMO-1 [28]	103	102	110	97.3	77.1
SHI-1 [29]	113	100	106	95.9	62.2
THP-1 [30]	95.5	103	103	106	79.1

Cn1c2cc(S(C)=O)sc2c2cnn(Cc3cccc(N)c3)c(=O)c21 (stereo not given) [TEPP-46]
Settings	IC50 (cell viability) [µM]
BV-173 [1]	> 10
HEL [2]	> 10
HL-60 [3]	> 10
K-562 [4]	> 10
KCL-22 [5]	> 10
KG-1 [6]	> 10
KU-812 [7]	> 10
LAMA-84 [8]	> 10
ML-2 [9]	> 10
MOLM-13 [10]	> 10
MV4-11 [11]	> 10
Mono-Mac-6 [12]	> 10
NOMO-1 [13]	> 10
SHI-1 [14]	> 10
THP-1 [15]	> 10

cell viability [%]
Settings	1 nM	10 nM	100 nM	1000 nM	10000 nM
BV-173 [16]	108	84.1	102	106	76.8
HEL [17]	118	96.2	100	99.1	84
HL-60 [18]	104	81.9	98.8	113	105
K-562 [19]	112	92.1	101	111	81.8
KCL-22 [20]	109	96.8	97.2	111	87.8
KG-1 [21]	116	99.9	102	93.5	85.1
KU-812 [22]	94.7	102	98.5	107	74.4
LAMA-84 [23]	106	98.2	98.2	97.4	90.6
ML-2 [24]	116	98.9	102	108	91.7
MOLM-13 [25]	136	92.9	91.9	123	94.3
MV4-11 [26]	105	100	94.1	103	69.3
Mono-Mac-6 [27]	102	106	103	102	83
NOMO-1 [28]	104	92.6	102	99.8	93.3
SHI-1 [29]	125	101	105	96.5	95.3
THP-1 [30]	101	100	97.5	104	99.7
